# According to patent publication US20020137929A1, “1 - (3-heterocyclylphenyl) isothiourea, -isourea, -guanidine and -amidine herbicidal agents” (Intellectual Property Department, BASF Aktiengesellschaft, priority 1998, published 2002):
# Tests used:
# AMBEL (Ragweed, Common) = assay: Preemergence herbicidal evaluation; format: in vivo, Ambrosia artemisifolia; details: rated 4-5 weeks after treatment
# Excerpt: Results of herbicide evaluation are expressed on a rating scale (0-9). The scale is based upon a visual observation of plant stand, vigor, malformation, size, chlorosis and overall plant appearance as compared with a control.
# The preemergence herbicidal activity of the test compounds of the present invention is exemplified by the following tests in which the seeds of a variety of monocotyledonous and dicotyledonous plants are separately mixed with potting soil and planted on top of approximately one inch of soil in separate pint cups. After planting, the cups are sprayed with the selected aqueous acetone solution containing test compound in sufficient quantity to provide the equivalent of about 0.0156 to 0.500 kg per hectare of test compound per cup. The treated cups are then placed on greenhouse benches, watered and cared for in accordance with conventional greenhouse procedures. From four to five weeks after treatment, the tests are terminated and each cup is examined and rated according to the rating system provided in Example 37.
# The compounds evaluated are reported by compound number given in Example 37.
# CYPIR (Rice Flatsedge) = assay: Preemergence weed control under flooded paddy conditions; format: in vivo, Cyperus iria; details: rated 3-4 weeks after treatment
# In short: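 Ratings on a 0-9 visual scale cover stand, vigor, malformation, size, chlorosis and overall appearance relative to a control, taken three to four weeks post-treatment. Application was into flood water over freshly sown silt loam at roughly 0.0313 to 0.500 kg/ha.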
Compound,"Preemergence herbicidal rating AMBEL (AMBEL (Ragweed, Common); rate 0.0313 kg/ha)","Preemergence herbicidal rating AMBEL (AMBEL (Ragweed, Common); rate 0.0625 kg/ha)","Preemergence herbicidal rating AMBEL (AMBEL (Ragweed, Common); rate 0.1250 kg/ha)","Preemergence herbicidal rating AMBEL (AMBEL (Ragweed, Common); rate 0.2500 kg/ha)",CYPIR herbicidal effect rating (CYPIR (Rice Flatsedge); 0.0313 kg/ha),CYPIR herbicidal effect rating (CYPIR (Rice Flatsedge); 0.0625 kg/ha),CYPIR herbicidal effect rating (CYPIR (Rice Flatsedge); 0.1250 kg/ha),CYPIR herbicidal effect rating (CYPIR (Rice Flatsedge); 0.2500 kg/ha),Herbicidal rating CYPIR (CYPIR (Rice Flatsedge); 0.0313 kg/ha),Herbicidal rating CYPIR (CYPIR (Rice Flatsedge); 0.0625 kg/ha),Herbicidal rating CYPIR (CYPIR (Rice Flatsedge); 0.1250 kg/ha),Herbicidal rating CYPIR (CYPIR (Rice Flatsedge); 0.2500 kg/ha),"Preemergence herbicidal rating AMBEL (AMBEL (Ragweed, Common); rate 0.0156 kg/ha)"
"CCOC(=O)C(c1ccc(Cl)cc1)N1C(=O)CSC1=Nc1cc(-n2c(=O)cc(C(F)(F)F)n(C)c2=O)c(F)cc1Cl (racemic) [Compound 79, Ethyl α-(p-chlorophenyl)-2-{{2-chloro-5-[3,6-dihydro-3-methyl-2,6-dioxo-4-(trifluoromethyl)-1(2H)-pyrimidinyl]-4-fluorophenyl}imino}-4-oxo-3-thiazolidineacetate, DL-]",1.0,3.0,1.0,8.0,0.0,0.0,2.0,6.0,–,–,–,–,–
CCOC(=O)CN1CCSC1=Nc1cc(-n2nc(C)n(C(F)F)c2=O)c(F)cc1Cl [Compound 36],–,0.0,0.0,9.0,–,–,–,–,0.0,5.0,5.0,9.0,–
"Cn1c(C(F)(F)F)cc(=O)n(-c2cc(N=C3SCC(=O)N3[C@H](Cc3ccccc3)C(=O)O)c(Cl)cc2F)c1=O [Compound 69, α-Benzyl-2-{{2-chloro-5-[3,6-dihydro-3-methyl-2,6-dioxo-4-(trifluoromethyl)-1(2H)-pyrimidinyl]-4-fluorophenyl}imino}-4-oxo-3-thiazolidineacetic acid, D-]",4.0,5.0,9.0,7.0,3.0,3.0,3.0,3.0,–,–,–,–,0.0
"COC(=O)[C@H](Cc1ccccc1)N1C(=O)CS/C1=N/c1cc(-n2c(=O)cc(C(F)(F)F)n(C)c2=O)c(F)cc1Cl [Compound 72, Methyl α-benzyl-2-{{2-chloro-5-[3,6-dihydro-3-methyl-2,6-dioxo-4-(trifluoromethyl)-1(2H)-pyrimidinyl]-4-fluorophenyl]imino}-4-oxo-3-thiazolidineacetate, L-]",–,2.0,9.0,9.0,6.0,6.0,7.0,9.0,–,–,–,–,0.0
Cn1c(C(F)(F)F)cc(=O)n(-c2cc(N=C3SCC(=O)N3C3CCOC3=O)c(Cl)cc2F)c1=O (stereo not drawn) [Compound 73],0.0,4.0,9.0,9.0,–,–,0.0,6.0,–,–,–,–,1.0
"CCOC(=O)[C@H](C)N1C(=O)CSC1=Nc1cc(-n2c(=O)cc(C(F)(F)F)n(C)c2=O)c(F)cc1Cl [Compound 76, Ethyl 2-{{2-chloro-5-[3,6-dihydro-3-methyl-2,6-dioxo-4-(trifluoromethyl)-1(2H)-pyrimidinyl]-4-fluorophenyl}imino}-α-methyl-4-oxo-3-thiazolidineacetate, L-]",0.0,7.0,9.0,9.0,0.0,0.0,0.0,6.0,–,–,–,–,0.0
